Measurements published in article PMC3814616, “BRAF inhibitors suppress apoptosis through off-target inhibition of JNK signaling” (eLife, 2013).
Like-named read-outs stand apart in the source and are kept apart here.

Key:
ASK1 (MAP3K5) = target: T1, ASK1 (MAP3K5) (Homo sapiens, UniProt Q99683); experiment: Quantitative competitive binding assay (KINOMEscan)
T1 construct: purchased KINOMEscan (DiscoveRx), San Diego, CA
T1 sequence (Q99683 1-1374): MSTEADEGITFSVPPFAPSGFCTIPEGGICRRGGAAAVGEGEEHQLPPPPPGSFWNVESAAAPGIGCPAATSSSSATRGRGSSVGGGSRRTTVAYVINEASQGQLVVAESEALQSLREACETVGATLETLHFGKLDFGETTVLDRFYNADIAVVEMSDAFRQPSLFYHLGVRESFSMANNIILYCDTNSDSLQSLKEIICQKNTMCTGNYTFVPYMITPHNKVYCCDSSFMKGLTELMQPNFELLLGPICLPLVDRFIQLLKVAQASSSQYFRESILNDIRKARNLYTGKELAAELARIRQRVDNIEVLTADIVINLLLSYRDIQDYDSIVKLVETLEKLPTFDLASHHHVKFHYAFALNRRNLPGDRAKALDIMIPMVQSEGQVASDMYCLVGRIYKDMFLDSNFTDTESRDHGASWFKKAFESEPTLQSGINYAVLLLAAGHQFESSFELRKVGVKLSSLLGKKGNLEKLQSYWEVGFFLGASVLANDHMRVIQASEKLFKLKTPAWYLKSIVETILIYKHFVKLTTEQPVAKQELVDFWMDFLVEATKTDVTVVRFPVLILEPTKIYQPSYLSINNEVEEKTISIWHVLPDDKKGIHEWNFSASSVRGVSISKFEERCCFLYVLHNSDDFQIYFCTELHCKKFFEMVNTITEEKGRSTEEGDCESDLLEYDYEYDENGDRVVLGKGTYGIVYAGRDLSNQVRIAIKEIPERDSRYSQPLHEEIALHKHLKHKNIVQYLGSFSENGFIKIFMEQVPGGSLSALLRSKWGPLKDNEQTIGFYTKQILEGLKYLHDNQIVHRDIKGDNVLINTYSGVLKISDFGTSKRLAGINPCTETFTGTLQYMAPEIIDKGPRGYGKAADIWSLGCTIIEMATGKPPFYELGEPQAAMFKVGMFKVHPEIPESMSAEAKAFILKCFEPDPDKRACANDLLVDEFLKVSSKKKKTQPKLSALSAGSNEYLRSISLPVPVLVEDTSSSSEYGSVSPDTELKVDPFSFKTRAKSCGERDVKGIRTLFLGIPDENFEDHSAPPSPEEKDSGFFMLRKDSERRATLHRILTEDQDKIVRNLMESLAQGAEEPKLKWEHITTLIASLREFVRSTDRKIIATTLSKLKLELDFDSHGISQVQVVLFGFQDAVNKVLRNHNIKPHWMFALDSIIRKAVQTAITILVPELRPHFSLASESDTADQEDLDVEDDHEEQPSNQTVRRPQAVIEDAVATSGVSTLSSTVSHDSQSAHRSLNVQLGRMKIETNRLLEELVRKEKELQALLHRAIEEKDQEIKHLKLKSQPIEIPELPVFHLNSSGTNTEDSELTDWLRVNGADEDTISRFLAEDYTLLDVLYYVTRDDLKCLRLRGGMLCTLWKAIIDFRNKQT

SRMS = SRMS (Homo sapiens, UniProt Q9H3Y6); experiment: as above
MAP3K1 = target: T2, MAP3K1 (Homo sapiens, UniProt Q13233); experiment: as above
T2 construct: purchased KINOMEscan (DiscoveRx), San Diego, CA
T2 sequence (Q13233 whole entry): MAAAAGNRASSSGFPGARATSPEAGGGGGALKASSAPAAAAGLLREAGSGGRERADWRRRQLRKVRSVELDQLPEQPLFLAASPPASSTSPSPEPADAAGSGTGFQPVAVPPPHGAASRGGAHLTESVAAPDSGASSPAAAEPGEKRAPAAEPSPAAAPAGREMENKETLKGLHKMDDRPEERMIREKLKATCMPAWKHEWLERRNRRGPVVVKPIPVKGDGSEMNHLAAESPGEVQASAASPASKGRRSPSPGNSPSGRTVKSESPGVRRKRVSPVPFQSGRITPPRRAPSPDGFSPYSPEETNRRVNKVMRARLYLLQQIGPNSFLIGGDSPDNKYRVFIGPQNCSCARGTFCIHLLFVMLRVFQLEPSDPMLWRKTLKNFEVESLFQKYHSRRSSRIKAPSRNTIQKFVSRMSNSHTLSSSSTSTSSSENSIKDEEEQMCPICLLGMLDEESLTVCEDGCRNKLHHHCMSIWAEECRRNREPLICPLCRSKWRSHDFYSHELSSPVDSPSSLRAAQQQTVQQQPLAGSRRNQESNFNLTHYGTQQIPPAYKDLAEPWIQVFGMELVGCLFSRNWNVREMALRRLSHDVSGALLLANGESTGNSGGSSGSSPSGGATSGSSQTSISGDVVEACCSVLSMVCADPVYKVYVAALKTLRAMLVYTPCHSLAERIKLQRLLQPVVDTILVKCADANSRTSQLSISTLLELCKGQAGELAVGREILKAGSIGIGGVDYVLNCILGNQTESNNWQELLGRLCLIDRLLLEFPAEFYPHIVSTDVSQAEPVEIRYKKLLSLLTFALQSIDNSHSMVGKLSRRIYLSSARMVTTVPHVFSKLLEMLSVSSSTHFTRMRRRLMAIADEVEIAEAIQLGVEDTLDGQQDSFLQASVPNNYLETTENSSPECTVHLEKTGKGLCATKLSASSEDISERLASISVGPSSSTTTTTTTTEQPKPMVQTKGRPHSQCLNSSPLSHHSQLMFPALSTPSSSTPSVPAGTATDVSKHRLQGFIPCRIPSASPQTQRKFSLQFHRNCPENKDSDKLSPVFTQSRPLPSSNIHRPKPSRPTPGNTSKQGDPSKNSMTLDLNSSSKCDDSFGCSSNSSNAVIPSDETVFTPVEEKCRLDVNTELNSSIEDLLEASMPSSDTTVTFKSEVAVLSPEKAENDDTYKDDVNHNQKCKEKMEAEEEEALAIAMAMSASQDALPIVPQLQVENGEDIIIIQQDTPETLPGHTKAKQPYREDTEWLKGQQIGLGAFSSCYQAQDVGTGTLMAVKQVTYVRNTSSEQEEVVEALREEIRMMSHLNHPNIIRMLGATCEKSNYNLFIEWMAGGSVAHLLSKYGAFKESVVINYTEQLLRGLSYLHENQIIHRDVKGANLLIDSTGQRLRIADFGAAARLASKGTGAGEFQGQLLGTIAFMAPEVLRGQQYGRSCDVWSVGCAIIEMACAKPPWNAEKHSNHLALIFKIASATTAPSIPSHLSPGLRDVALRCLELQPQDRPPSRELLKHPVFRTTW

MEK3 (MAP2K3) = target: T3, MEK3 (MAP2K3) (Homo sapiens, UniProt P46734); experiment: as above
T3 construct: purchased KINOMEscan (DiscoveRx), San Diego, CA
T3 sequence (P46734 whole entry): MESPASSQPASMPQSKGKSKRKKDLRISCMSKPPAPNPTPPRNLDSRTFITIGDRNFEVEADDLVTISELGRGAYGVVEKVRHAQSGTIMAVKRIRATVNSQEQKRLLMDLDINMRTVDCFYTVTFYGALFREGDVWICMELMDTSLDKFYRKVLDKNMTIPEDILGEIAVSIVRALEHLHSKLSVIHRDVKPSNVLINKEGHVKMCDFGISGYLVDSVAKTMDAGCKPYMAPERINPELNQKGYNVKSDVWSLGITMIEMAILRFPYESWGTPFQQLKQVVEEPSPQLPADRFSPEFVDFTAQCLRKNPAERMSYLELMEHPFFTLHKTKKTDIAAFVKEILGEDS

TNIK = target: T4, TNIK (Homo sapiens, UniProt Q9UKE5); experiment: as above
T4 construct: purchased KINOMEscan (DiscoveRx), San Diego, CA

MLK1 (MAP3K9) [1] = target: T5, MLK1 (MAP3K9) (Homo sapiens, UniProt P80192); experiment: as above
T5 construct: purchased KINOMEscan (DiscoveRx), San Diego, CA
T5 sequence (P80192 whole entry): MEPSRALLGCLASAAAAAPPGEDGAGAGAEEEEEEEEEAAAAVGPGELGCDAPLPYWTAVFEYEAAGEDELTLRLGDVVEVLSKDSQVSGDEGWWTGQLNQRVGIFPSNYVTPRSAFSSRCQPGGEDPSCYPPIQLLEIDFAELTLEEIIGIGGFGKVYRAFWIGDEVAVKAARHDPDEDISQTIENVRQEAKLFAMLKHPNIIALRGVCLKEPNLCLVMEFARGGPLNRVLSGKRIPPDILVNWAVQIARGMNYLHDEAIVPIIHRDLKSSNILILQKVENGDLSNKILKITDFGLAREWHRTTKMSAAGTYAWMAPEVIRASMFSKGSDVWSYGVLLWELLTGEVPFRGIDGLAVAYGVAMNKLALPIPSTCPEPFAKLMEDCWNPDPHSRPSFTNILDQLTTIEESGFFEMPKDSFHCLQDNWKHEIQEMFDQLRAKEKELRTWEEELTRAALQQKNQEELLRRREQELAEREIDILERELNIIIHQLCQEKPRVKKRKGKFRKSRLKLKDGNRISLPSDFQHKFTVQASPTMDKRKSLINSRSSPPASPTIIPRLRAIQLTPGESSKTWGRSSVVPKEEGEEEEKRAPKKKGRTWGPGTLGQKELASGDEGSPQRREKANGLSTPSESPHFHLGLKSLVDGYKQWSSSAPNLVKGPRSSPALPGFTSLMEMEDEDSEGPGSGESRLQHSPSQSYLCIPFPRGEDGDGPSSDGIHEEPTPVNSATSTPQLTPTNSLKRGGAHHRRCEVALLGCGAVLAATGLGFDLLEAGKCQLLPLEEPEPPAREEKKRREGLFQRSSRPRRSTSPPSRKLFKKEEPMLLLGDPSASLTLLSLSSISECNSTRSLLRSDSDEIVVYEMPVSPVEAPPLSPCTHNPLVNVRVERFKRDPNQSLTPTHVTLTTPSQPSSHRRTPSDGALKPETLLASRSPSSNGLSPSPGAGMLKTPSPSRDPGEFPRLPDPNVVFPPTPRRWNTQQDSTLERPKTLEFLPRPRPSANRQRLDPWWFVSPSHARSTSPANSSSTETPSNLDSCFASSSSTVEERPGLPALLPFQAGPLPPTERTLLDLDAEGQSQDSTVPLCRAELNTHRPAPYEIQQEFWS

TAOK3 = target: T6, TAOK3 (Homo sapiens, UniProt Q9H2K8); experiment: as above
T6 construct: purchased KINOMEscan (DiscoveRx), San Diego, CA
T6 sequence (Q9H2K8 whole entry): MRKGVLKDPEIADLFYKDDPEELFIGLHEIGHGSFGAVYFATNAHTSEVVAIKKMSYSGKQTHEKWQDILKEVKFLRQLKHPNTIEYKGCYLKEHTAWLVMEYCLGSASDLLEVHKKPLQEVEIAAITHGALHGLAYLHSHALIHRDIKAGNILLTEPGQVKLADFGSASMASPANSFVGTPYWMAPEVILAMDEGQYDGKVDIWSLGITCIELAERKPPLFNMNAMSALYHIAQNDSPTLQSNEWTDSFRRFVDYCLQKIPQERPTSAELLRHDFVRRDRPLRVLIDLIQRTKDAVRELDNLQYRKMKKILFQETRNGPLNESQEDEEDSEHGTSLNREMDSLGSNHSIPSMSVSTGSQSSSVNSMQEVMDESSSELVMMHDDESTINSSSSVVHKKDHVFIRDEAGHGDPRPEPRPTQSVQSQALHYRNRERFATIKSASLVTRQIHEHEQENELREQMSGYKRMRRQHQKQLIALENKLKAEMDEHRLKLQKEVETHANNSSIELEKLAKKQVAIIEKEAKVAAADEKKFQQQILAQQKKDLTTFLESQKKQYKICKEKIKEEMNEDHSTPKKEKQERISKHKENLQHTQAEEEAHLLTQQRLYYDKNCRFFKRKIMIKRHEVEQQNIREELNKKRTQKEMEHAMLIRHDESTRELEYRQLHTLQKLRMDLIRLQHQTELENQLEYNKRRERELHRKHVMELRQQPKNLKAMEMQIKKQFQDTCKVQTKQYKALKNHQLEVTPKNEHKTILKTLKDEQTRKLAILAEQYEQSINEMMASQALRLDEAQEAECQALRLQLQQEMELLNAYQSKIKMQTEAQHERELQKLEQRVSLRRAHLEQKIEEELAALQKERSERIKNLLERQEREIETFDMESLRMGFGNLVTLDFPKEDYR

MLK1 (MAP3K9) [2] = target: T5, MLK1 (MAP3K9); conditions: ref Bollag et al., 2010; read-out: Published biochemical IC50; cited from earlier work
STK39 = target: T7, STK39 (Homo sapiens, UniProt Q9UEW8); experiment: Quantitative competitive binding assay (KINOMEscan)
T7 construct: purchased KINOMEscan (DiscoveRx), San Diego, CA

DLK (MAP3K12) = target: T8, DLK (MAP3K12) (Homo sapiens, UniProt Q12852); experiment: as above
T8 construct: purchased KINOMEscan (DiscoveRx), San Diego, CA

MEK6 (MAP2K6) = target: T9, MEK6 (MAP2K6) (Homo sapiens, UniProt P52564); experiment: as above
T9 construct: purchased KINOMEscan (DiscoveRx), San Diego, CA
T9 sequence (P52564 whole entry): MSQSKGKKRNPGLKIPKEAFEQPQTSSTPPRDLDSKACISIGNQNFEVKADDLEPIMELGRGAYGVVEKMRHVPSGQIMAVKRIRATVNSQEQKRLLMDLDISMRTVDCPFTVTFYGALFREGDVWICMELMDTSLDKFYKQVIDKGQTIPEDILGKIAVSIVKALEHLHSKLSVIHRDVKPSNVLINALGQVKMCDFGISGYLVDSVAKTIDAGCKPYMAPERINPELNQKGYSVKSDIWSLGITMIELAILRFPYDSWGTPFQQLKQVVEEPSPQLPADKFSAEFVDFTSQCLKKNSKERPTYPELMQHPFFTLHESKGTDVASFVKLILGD

TAK1 (MAP3K7) = target: T10, TAK1 (MAP3K7) (Homo sapiens, UniProt O43318); experiment: as above
T10 construct: purchased KINOMEscan (DiscoveRx), San Diego, CA

BRK (PTK6) = BRK (PTK6) (Homo sapiens, UniProt Q13882); experiment: as above
Chain of BRK (PTK6) (Q13882 whole entry): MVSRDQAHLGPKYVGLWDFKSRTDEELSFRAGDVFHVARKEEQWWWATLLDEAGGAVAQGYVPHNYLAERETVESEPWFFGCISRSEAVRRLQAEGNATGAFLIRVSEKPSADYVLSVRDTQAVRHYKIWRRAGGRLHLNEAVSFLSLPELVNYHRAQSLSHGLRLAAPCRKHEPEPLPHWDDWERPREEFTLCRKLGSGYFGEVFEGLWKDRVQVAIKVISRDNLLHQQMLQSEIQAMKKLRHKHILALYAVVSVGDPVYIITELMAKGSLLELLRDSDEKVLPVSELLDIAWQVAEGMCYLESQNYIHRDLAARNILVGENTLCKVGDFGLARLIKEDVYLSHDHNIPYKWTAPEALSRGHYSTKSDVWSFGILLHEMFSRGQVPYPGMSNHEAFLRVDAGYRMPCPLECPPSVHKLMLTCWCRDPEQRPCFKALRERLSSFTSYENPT

FGR = target: T11, FGR (Homo sapiens, UniProt P09769); experiment: as above
T11 construct: purchased KINOMEscan (DiscoveRx), San Diego, CA

[3] = estimated Kd, averaged pointwise estimates, transformed Hill equation, read-out: Calculated estimate of IC50
[4] = read-out: Percent control (50 nM)
[5] = read-out: Percent control (200 nM)
[6] = read-out: Percent control (1000 nM)
[7] = read-out: Percent control (10 μM)

Question: With CCCS(=O)(=O)Nc1ccc(F)c(C(=O)c2c[nH]c3ncc(-c4ccc(Cl)cc4)cc23)c1F [vemurafenib] as the compound, how does the IC50 (ASK1 (MAP3K5); [3]) read?
Answer: 12 µM

Question: And the remaining binding at 0.05 µM (ASK1 (MAP3K5); [4])?
Answer: 90%

Question: And the remaining binding at 0.2 µM (ASK1 (MAP3K5); [5])?
Answer: 94%

Question: And the remaining binding at 1 µM (ASK1 (MAP3K5); [6])?
Answer: 97%

Question: And the remaining binding at 10 µM (ASK1 (MAP3K5); [7])?
Answer: 100%

Question: And the IC50 (SRMS; [3])?
Answer: 0.0111 µM

Question: What about the remaining binding at 0.05 µM (SRMS; [4]) of the same compound?
Answer: 24%

Question: And the remaining binding at 0.2 µM (SRMS; [5])?
Answer: 9.6%

Question: And the remaining binding at 1 µM (SRMS; [6])?
Answer: 0.75%

Question: What about the remaining binding at 10 µM (SRMS; [7]) of the same compound?
Answer: 0%

Question: What about the remaining binding at 0.05 µM (MAP3K1; [4]) of the same compound?
Answer: 98%

Question: What about the remaining binding at 0.2 µM (MAP3K1; [5]) of the same compound?
Answer: 84%

Question: What about the remaining binding at 1 µM (MAP3K1; [6]) of the same compound?
Answer: 89%

Question: And the remaining binding at 10 µM (MAP3K1; [7])?
Answer: 81%

Question: What about the remaining binding at 0.05 µM (MEK3 (MAP2K3); [4]) of the same compound?
Answer: 100%

Question: What about the remaining binding at 0.2 µM (MEK3 (MAP2K3); [5]) of the same compound?
Answer: 96%

Question: And the remaining binding at 1 µM (MEK3 (MAP2K3); [6])?
Answer: 98%

Question: What about the remaining binding at 10 µM (MEK3 (MAP2K3); [7]) of the same compound?
Answer: 54%

Question: What about the remaining binding at 0.05 µM (TNIK; [4]) of the same compound?
Answer: 95%

Question: What about the remaining binding at 0.2 µM (TNIK; [5]) of the same compound?
Answer: 94%

Question: What about the remaining binding at 1 µM (TNIK; [6]) of the same compound?
Answer: 66%

Question: What about the remaining binding at 10 µM (TNIK; [7]) of the same compound?
Answer: 11%

Question: What about the IC50 (MLK1 (MAP3K9) [1]; [3]) of the same compound?
Answer: 14 µM

Question: And the remaining binding at 0.05 µM (MLK1 (MAP3K9) [1]; [4])?
Answer: 100%

Question: What about the remaining binding at 0.2 µM (MLK1 (MAP3K9) [1]; [5]) of the same compound?
Answer: 93%

Question: What about the remaining binding at 1 µM (MLK1 (MAP3K9) [1]; [6]) of the same compound?
Answer: 97%

Question: What about the remaining binding at 10 µM (MLK1 (MAP3K9) [1]; [7]) of the same compound?
Answer: 41%

Question: What about the IC50 (TAOK3; [3]) of the same compound?
Answer: 15.5 µM

Question: What about the remaining binding at 0.05 µM (TAOK3; [4]) of the same compound?
Answer: 92%

Question: And the remaining binding at 0.2 µM (TAOK3; [5])?
Answer: 98%

Question: What about the remaining binding at 1 µM (TAOK3; [6]) of the same compound?
Answer: 92%

Question: And the remaining binding at 10 µM (TAOK3; [7])?
Answer: 80%

Question: And the IC50 (MLK1 (MAP3K9) [2])?
Answer: > 1 µM

Question: What about the remaining binding at 0.05 µM (STK39; [4]) of the same compound?
Answer: 100%

Question: And the remaining binding at 0.2 µM (STK39; [5])?
Answer: 100%

Question: And the remaining binding at 1 µM (STK39; [6])?
Answer: 97%

Question: What about the remaining binding at 10 µM (STK39; [7]) of the same compound?
Answer: 66%

Question: What about the remaining binding at 0.05 µM (DLK (MAP3K12); [4]) of the same compound?
Answer: 98%

Question: And the remaining binding at 0.2 µM (DLK (MAP3K12); [5])?
Answer: 97%

Question: And the remaining binding at 1 µM (DLK (MAP3K12); [6])?
Answer: 66%

Question: And the remaining binding at 10 µM (DLK (MAP3K12); [7])?
Answer: 92%

Question: What about the IC50 (MEK6 (MAP2K6); [3]) of the same compound?
Answer: 4.08 µM

Question: What about the remaining binding at 0.05 µM (MEK6 (MAP2K6); [4]) of the same compound?
Answer: 91%

Question: And the remaining binding at 0.2 µM (MEK6 (MAP2K6); [5])?
Answer: 97%

Question: What about the remaining binding at 1 µM (MEK6 (MAP2K6); [6]) of the same compound?
Answer: 87%

Question: What about the remaining binding at 10 µM (MEK6 (MAP2K6); [7]) of the same compound?
Answer: 21%

Question: And the remaining binding at 0.05 µM (TAK1 (MAP3K7); [4])?
Answer: 93%

Question: What about the remaining binding at 0.2 µM (TAK1 (MAP3K7); [5]) of the same compound?
Answer: 88%

Question: What about the remaining binding at 1 µM (TAK1 (MAP3K7); [6]) of the same compound?
Answer: 86%

Question: What about the remaining binding at 10 µM (TAK1 (MAP3K7); [7]) of the same compound?
Answer: 88%

Question: What about the IC50 (BRK (PTK6); [3]) of the same compound?
Answer: 0.068 µM

Question: What about the remaining binding at 0.05 µM (BRK (PTK6); [4]) of the same compound?
Answer: 63%

Question: And the remaining binding at 0.2 µM (BRK (PTK6); [5])?
Answer: 28%

Question: What about the remaining binding at 1 µM (BRK (PTK6); [6]) of the same compound?
Answer: 6.9%

Question: What about the remaining binding at 10 µM (BRK (PTK6); [7]) of the same compound?
Answer: 0.35%

Question: What about the IC50 (FGR; [3]) of the same compound?
Answer: 0.149 µM

Question: What about the remaining binding at 0.05 µM (FGR; [4]) of the same compound?
Answer: 65%

Question: And the remaining binding at 0.2 µM (FGR; [5])?
Answer: 49%

Question: And the remaining binding at 1 µM (FGR; [6])?
Answer: 13%

Question: And the remaining binding at 10 µM (FGR; [7])?
Answer: 1.6%
